Consider nine molecules from patent US20230097866A1, “BACTERIAL TOPOISOMERASE INHIBITORS DERIVED FROM ISOMANNIDE” (Ohio State Innovation Foundation, priority 2020, published 2023).

SMILES strings stand for the structures. In brackets after ≈: the same amount, converted by molar mass. Like-named read-outs stand apart in the source and are kept apart here. Bounds are passed on as bounds.

For data set [1], the system named is S. aureus strain isolated from a cystic fibrosis patient. Description: MIC, CLSI broth microdilution, CF isolate. Format: cell-based. Particulars: Staphylococcus aureus, read-out: MIC CF isolate. (In general: Dilution methods test growth across graded concentrations, often in twofold steps.)
The next data set concerns USA300 isolate of MRSA. In words: MIC, CLSI broth microdilution, USA300 MRSA. Format: cell-based. The following applies: Staphylococcus aureus, read-out: MIC USA300.
Data set [2] concerns S. aureus ATCC 29213. In words: MIC, CLSI broth microdilution, S. aureus ATCC 29213. Format: cell-based. Particulars: Staphylococcus aureus.
The next data set addresses TopoIV from S. aureus (Staphylococcus aureus, UniProt P0C1U9). Description: biochemical. Format: biochemical.
The next data set has as its target S. aureus DNA gyrase (Staphylococcus aureus, UniProt P20831). In words: Inhibition of DNA gyrase, biochemical assay (Inspiralis).
Data set [3] concerns S. aureus ATCC 29213. Format: cell-based, Staphylococcus aureus.
Data set [4] relates to S. aureus ATCC 29213. Description: microbe, parasite or virus in culture. Format: cell-based. Particulars: Staphylococcus aureus, ATCC29213, read-out: S. aureus ATCC 29213 MIC (n = 2). On the procedure: In order to determine the spontaneous mutation frequency of investigational agents (Table 4), the MIC was first determined using the agar dilution method as recommended by the Clinical and Laboratory Standards Institute.
Triplicate independent inocula of S. aureus ATCC 29213 were evaluated.

The target of a further data set is hERG (Homo sapiens, UniProt Q12809). In words: hERG IC50, IonWorks Barracuda (Charles River). The source says:
The design of these isomannide-detived NBTIs focused on enhanced polarity and modulation of basicity through the two electronegative oxygen atoms in the linker.

In data set [5] the test system is Mycobacterium abscessus (ATCC 19977). Description: Ex vivo efficacy against M. abscessus. Format: cell-based. Particulars: concentration for >90% inhibition. As to the method: (§1) Ex vivo efficacy was determined by inhibition of Mycobacterium avium complex (ATCC 700891 MAC 101), and Mycobacterium abscessus (ATCC 19977). Cytotoxicity tests were carried out against three human cell lines, THP-1 (ATCC TIB-202), HepG2 (ATCC HB-8065), and HeLa (ATCC CCL-2). IC50 values were calculated from dose response curves to determine cytotoxicity of test compounds.

Another data set has as its system M. tuberculosis H37Rv. In words: MIC, microbroth dilution, M. tuberculosis H37Rv. Format: cell-based. The following applies: Mycobacterium tuberculosis.
For the next data set, the system named is M. avium 700891. In words: MIC, microbroth dilution, M. avium. Format: cell-based. The following applies: Mycobacterium avium. On the procedure: (§2) MICs were determined against the NTM strains […] avium ATCC 700891 MAC101 and M. abscessus 19977 using the microbroth dilution method. MIC was determined using optical density and a calorimetric growth indicator. For optical density ([…]), the MIC is considered the first concentration to inhibit growth when compared to an untreated growth control. A calorimetric growth indicator (i.e. Alamar Blue) was also added to confirm MIC value by observing color change from […], indicating no active growth.

The next data set deals with M. abscessus 19977. Description: MIC, microbroth dilution, M. abscessus. Format: cell-based, Mycobacterium abscessus. Particulars: Mycobacteroides abscessus. As to the method:
as §2

The test system of data set [6] is Mycobacterium avium complex (ATCC 700891 MAC 101). Description: Ex vivo efficacy against M. avium. Format: cell-based. Particulars: concentration for >90% inhibition. On the procedure:
as §1

The test system of data set [7] is M tuberculosis H37Rv in THP-1 macrophages. In words: Ex vivo efficacy against M. tuberculosis in THP-1 macrophages. Format: cell-based, Mycobacterium tuberculosis.
Data set [8] concerns Streptococcus pneumoniae LSI-4246. Particulars: penicillin-resistant strain; previously published data for 27 and ciprofloxacin; cited from earlier work.
Data set [9] concerns Escherichia coli ATCC 25922. The following applies: previously published data for 27 and ciprofloxacin; cited from earlier work.
For data set [10], the system named is Acinetobacter baumannii LSI-2957. Particulars: previously published data for 27 and ciprofloxacin; cited from earlier work.
The subject of data set [11] is Enterococcus faecium DRL-4193. The following applies: vancomycin-susceptible strain; previously published data for 27 and ciprofloxacin; cited from earlier work.
Data set [12] concerns Streptococcus pyogenes LSI-1235. The following applies: previously published data for 27 and ciprofloxacin; cited from earlier work.
The test system of data set [13] is Enterococcus faecalis ATCC 29212. Particulars: previously published data for 27 and ciprofloxacin; cited from earlier work.
The test system of data set [14] is Klebsiella pneumoniae LSI-2999. The following applies: previously published data for 27 and ciprofloxacin; cited from earlier work.
In data set [15] the test system is Pseudomonas aeruginosa LSI-2946. The following applies: previously published data for 27 and ciprofloxacin; cited from earlier work.
Where [16] appears, read: ATCC29213, read-out: MIC ATCC 29213.
Where [17] appears, read: CLSI broth microdilution, ciprofloxacin-resistant MRSA.
Where [18] appears, read: ATCC29213, CLSI broth microdilution, triplicate, read-out: MIC ATCC 29213.
Where [19] appears, read: S. aureus TopoIV, read-out: TopoIV IC50.
The mark [20] stands for this setting: S. aureus DNA gyrase, Inspiralis, Ltd., read-out: Gyrase IC50.

TopoIV from S. aureus, sequence (P0C1S7 whole entry): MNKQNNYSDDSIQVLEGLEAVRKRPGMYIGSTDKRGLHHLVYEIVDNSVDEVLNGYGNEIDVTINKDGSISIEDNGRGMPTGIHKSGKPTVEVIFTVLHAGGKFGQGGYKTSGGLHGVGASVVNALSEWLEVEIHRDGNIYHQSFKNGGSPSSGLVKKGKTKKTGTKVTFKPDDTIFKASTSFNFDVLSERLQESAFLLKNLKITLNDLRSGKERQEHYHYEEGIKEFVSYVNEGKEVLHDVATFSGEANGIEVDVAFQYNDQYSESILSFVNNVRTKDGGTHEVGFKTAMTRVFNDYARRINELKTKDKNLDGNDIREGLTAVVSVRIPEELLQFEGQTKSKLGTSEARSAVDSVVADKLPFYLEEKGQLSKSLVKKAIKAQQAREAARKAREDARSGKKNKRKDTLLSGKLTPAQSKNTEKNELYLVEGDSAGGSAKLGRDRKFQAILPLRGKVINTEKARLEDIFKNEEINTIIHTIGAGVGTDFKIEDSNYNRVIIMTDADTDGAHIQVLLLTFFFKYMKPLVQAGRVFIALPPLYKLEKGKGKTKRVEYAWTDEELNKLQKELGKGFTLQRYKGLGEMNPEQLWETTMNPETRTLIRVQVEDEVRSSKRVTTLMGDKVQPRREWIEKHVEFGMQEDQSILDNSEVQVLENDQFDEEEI
TopoIV from S. aureus, sequence (P0C1U9 whole entry): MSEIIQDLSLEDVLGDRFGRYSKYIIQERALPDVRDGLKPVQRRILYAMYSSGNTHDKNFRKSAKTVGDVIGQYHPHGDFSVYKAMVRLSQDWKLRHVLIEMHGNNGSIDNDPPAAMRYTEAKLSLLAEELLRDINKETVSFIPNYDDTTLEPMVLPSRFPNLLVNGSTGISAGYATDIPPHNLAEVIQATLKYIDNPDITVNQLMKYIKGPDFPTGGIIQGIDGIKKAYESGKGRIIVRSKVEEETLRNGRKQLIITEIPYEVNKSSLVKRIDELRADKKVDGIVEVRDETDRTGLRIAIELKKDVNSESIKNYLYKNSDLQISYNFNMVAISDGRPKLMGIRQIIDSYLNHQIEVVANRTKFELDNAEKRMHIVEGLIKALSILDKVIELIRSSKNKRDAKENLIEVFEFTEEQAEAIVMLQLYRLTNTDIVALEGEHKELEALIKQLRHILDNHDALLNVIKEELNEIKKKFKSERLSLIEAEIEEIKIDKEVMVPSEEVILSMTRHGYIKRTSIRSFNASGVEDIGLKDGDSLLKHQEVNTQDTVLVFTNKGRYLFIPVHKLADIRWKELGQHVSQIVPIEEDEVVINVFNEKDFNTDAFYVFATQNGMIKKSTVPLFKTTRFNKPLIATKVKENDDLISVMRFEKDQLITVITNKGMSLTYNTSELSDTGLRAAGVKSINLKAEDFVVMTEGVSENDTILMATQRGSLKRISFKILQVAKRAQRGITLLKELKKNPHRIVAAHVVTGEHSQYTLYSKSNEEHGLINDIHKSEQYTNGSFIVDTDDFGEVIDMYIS
S. aureus DNA gyrase, sequence (P0A0K8 whole entry): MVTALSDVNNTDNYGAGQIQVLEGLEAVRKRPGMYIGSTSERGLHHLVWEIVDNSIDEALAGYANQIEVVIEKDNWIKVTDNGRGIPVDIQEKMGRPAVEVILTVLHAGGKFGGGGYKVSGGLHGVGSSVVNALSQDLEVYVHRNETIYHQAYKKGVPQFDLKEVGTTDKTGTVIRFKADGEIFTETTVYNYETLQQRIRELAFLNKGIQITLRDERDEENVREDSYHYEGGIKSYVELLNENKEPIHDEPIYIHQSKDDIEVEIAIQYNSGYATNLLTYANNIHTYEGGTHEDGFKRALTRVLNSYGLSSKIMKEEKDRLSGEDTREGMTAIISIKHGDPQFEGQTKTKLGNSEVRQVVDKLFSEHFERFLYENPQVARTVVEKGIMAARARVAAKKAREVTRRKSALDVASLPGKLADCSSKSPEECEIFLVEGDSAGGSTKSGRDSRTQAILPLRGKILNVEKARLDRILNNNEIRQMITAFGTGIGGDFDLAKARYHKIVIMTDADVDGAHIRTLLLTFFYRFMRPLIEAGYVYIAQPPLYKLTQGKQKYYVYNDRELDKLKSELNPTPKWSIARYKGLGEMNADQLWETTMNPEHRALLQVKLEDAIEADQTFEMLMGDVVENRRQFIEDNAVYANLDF
S. aureus DNA gyrase, sequence (P20831 whole entry): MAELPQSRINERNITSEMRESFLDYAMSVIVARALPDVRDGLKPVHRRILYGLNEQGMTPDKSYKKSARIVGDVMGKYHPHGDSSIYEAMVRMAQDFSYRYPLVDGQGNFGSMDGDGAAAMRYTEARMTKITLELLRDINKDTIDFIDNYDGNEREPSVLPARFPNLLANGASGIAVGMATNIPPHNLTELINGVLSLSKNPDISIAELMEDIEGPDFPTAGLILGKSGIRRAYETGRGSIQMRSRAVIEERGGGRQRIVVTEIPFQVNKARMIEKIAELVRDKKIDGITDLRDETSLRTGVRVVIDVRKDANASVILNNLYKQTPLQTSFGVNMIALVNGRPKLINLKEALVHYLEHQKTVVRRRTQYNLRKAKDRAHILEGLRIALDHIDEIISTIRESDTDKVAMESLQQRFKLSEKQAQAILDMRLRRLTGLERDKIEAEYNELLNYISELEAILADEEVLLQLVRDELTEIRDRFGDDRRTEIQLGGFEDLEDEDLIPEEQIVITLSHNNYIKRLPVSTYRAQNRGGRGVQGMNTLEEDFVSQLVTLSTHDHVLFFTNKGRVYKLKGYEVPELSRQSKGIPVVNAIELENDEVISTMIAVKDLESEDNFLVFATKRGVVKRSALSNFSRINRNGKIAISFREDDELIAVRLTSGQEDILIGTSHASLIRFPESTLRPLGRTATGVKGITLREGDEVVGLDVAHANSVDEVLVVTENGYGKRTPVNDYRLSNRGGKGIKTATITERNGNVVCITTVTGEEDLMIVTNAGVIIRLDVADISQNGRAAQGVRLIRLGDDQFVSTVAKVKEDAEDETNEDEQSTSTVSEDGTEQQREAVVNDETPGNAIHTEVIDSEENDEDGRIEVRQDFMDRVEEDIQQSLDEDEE
hERG, sequence (Q12809 whole entry): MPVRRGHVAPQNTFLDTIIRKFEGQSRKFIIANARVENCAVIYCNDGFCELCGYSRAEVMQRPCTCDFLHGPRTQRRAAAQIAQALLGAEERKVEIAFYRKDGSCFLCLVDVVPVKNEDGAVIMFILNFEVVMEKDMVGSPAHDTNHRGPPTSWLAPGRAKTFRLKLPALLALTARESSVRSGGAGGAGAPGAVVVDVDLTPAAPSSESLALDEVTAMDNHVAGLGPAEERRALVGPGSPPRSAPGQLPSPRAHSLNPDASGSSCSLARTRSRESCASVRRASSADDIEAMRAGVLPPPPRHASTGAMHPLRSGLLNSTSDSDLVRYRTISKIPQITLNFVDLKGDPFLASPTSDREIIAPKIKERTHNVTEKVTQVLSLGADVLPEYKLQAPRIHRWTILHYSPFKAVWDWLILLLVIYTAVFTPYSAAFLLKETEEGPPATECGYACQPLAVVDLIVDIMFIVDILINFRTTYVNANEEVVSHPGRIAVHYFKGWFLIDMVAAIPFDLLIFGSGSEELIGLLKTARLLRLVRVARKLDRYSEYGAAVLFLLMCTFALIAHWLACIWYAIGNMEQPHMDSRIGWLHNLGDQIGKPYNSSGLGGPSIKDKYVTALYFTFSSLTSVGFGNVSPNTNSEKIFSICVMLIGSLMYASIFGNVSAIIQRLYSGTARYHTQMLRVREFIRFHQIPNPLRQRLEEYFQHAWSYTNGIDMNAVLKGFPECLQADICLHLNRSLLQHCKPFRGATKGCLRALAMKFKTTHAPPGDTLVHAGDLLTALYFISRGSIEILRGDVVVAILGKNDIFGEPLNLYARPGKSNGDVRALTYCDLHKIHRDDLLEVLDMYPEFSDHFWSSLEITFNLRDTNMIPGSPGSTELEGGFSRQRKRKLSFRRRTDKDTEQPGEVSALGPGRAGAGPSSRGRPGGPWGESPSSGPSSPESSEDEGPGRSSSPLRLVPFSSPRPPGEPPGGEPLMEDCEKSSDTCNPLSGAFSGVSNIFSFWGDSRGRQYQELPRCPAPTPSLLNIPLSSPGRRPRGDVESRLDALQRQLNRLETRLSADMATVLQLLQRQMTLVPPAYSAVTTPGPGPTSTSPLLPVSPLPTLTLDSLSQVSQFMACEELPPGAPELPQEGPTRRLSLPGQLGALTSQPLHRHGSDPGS

As to `COc1ccc2ncc(F)c(CC[C@@]3(O)CO[C@@H]4[C@@H](NCc5ccc6c(n5)NC(=O)CO6)CO[C@@H]43)c2n1` [Compound 7, 6-((((3S,3aR,6R,6aS)-6-(2-(3-fluoro-6-methoxy-1,5-tnaphthyriditn-4-yl)ethyl)-6-hydroxyhexahydrofuro[3,2-b]furan-3-yl)amino)methyl)-2H-pyrido[3,2-b][1,4]oxazin-3(4H)-one], the results for the MIC (in [1]; in the data set on USA300 isolate of MRSA; with S. aureus ATCC 29213 [2] (setting [16])) were 2 µg/mL (≈ 3.91 µM), 1 to 2 µg/mL (≈ 1.95 to 3.91 µM) and 2 µg/mL (≈ 3.91 µM), respectively. Besides, the “TopoIV IC50” value at TopoIV from S. aureus is on record as “No activity”. In addition, inhibition against S. aureus DNA gyrase was half-maximal at 540 nM (IC50).
With `COc1ccc2nccc(CC[C@@]3(O)CO[C@@H]4[C@@H](NCc5ccc6c(c5)OCCO6)CO[C@@H]43)c2c1` [Compound 21, (3R,3aS,6S, 6aR)-6-(((2,3-dihydrobenzo[b][1,4]dioxin-6-yl)methyl)amino)-3-(2-(6-methoxyquinalin-4-yl)ethyl)hexahydrofuro[3,2-b]furan-3-ol], the MIC in data set [1] (CLSI broth microdilution) is 16 µg/mL (≈ 33.4 µM); in the data set with USA300 isolate of MRSA (setting [17]), 16 µg/mL (≈ 33.4 µM); with S. aureus ATCC 29213 [2] (setting [18]), 16 to 32 µg/mL (≈ 33.4 to 66.9 µM).
In the case of `COc1ccc2nccc(CC[C@@]3(O)CO[C@@H]4[C@@H](NCc5ccccc5)CO[C@@H]43)c2c1` [Compound 22, (3R,3aS,6S,6aR)-6-(benzylamino)-3-(2-(6-methoxyquinolin-4-yl)ethyl)hexahydrofuro[3,2-b]furan-3-ol], the MIC (in [1] (CLSI broth microdilution); with USA300 isolate of MRSA (setting [17]); in the data set on S. aureus ATCC 29213 [2] (setting [18])) was more than 8 µg/mL each time.
`COc1ccc2nccc(CC[C@@]3(O)CO[C@@H]4[C@@H](NCc5ccc(C)cc5)CO[C@@H]43)c2c1` [Compound 23, (3R,3aS,6S,6aR)-3-(2-(6-methoxyquinolin-4-yl)ethyl)-6-((4-methylbenzyl)amino)hexahydrofuro[3,2-h]furan-3-ol]: the MIC (in data set [1] (CLSI broth microdilution); with USA300 isolate of MRSA (setting [17]); in the data set with S. aureus ATCC 29213 [2] (setting [18])) was more than 8 µg/mL throughout.
For `COc1ccc2ncc(F)c(CC[C@@]3(O)CO[C@@H]4[C@@H](NCc5ccc6c(c5)OCCO6)CO[C@@H]43)c2n1` [Compound 24, (3R,3aS,6S, 6aR)-6-(((2,3-dihydrobenzo[b][1,4]dioxin-6-yl)methyl)amino)-3-(2-(3-fluoro-6-methoxy-1,5-naphthyridin-4-yl)ethyl)hexahydrofuro[3,2-b]furan-3-ol], the “Spontaneous mutation frequency (8X MIC)” value with S. aureus ATCC 29213 [3] was 1.35 × 10^−9 (mean, n = 2). Moreover, the “Spontaneous mutation frequency (16X MIC)” value with S. aureus ATCC 29213 [3] is 4.49 × 10^−10 (mean, n = 2). Besides, the MIC in [1] is 1 µg/mL (≈ 2.01 µM); in the data set with USA300 isolate of MRSA, 1 µg/mL (≈ 2.01 µM); with S. aureus ATCC 29213 [4] it was 0.5 µg/mL (≈ 1 µM); with S. aureus ATCC 29213 [2] (setting [16]), 0.5 to 1 µg/mL (≈ 1 to 2.01 µM). On hERG (24 versus cyclohexane-linked 31 and 32), the “hERG IC50 higher than 31 and 32” value is reported as more than 8 fold. In addition, the 50% inhibitory concentration (IC50) (usually the concentration that gives 50% inhibition) on TopoIV from S. aureus was found to be 2600 nM; against S. aureus DNA gyrase, 200 nM. Further, the “TopoIV/gyrase IC50 ratio” value on TopoIV from S. aureus was determined as 13. Moreover, the “improvement of TopoIV/gyrase IC50 ratio as compared to dioxane 27” value on TopoIV from S. aureus was approximately 2 fold.
Take `COc1ccc2ncc(F)c(CC[C@@]3(O)CO[C@@H]4[C@@H](NCc5ccc(C)cc5)CO[C@@H]43)c2n1` [Compound 25, (3R,3aS,6S,6aR)-3-(2-(3-fluora-6-methoxy-1,5-naphthyridin-4-yl)ethyl)-6-((4-methyllbenzyl)amino)hexahydrofuro[3,2-b]furan-3-ol]: the “Ex vivo efficacy M. abscessus (>90% inhibition)” value in data set [5] is more than 128 µg/mL. The MIC in data set [1] (CLSI broth microdilution) was 2 µg/mL (≈ 4.41 µM); in the data set on M. tuberculosis H37Rv, 8 µg/mL (≈ 17.6 µM); with USA300 isolate of MRSA (setting [17]) it was 2 µg/mL (≈ 4.41 µM); against M. avium 700891, 16 µg/mL (≈ 35.3 µM); with M. abscessus 19977, 8 µg/mL (≈ 17.6 µM); with S. aureus ATCC 29213 [2] (setting [18]), 1 to 2 µg/mL (≈ 2.21 to 4.41 µM). The half-inhibitory concentration (IC50) turned out to be 4200 nM on hERG (read-out: hERG IC50, IonWorks Barracuda); 7500 nM at TopoIV from S. aureus (setting [19]); 180 nM on S. aureus DNA gyrase (setting [20]). Besides, the “Ex vivo efficacy M. avium (>90% inhibition)” value in [6] was more than 128 µg/mL. Moreover, on TopoIV from S. aureus (S. aureus enzymes), the “TopoIV/gyrase IC50 ratio” value is listed as 42. For the same molecule, in [7], the “M. tuberculosis ex vivo efficacy (% inhibition at MIC)” value was 80%.
On to `COc1ccc2ncc(F)c(CC[C@@]3(O)CO[C@@H]4[C@@H](NCc5ccc(Cl)c(Cl)c5)CO[C@@H]43)c2n1` [Compound 26, (3R,3aS,6S,6aR)-6-((3,4-dichlorobenzyl)amino)-3-(2-(3-fluoro-6-methoxy-1,5-napkthyridin-4-yl)ethyl)hexahydrofuro[3,2-b]-furan-3-ol], for which the “Ex vivo efficacy M. abscessus (>90% inhibition)” value in [5] turned out to be 32 µg/mL. In addition, the MIC in data set [1] (CLSI broth microdilution) was 0.5 µg/mL (≈ 0.984 µM); with M. tuberculosis H37Rv, 2 µg/mL (≈ 3.93 µM); in the data set on USA300 isolate of MRSA (setting [17]), 0.5 µg/mL (≈ 0.984 µM); in the data set with M. avium 700891 it was 1 µg/mL (≈ 1.97 µM); in the data set with M. abscessus 19977, 8 µg/mL (≈ 15.7 µM); in the data set with S. aureus ATCC 29213 [2] (setting [18]), 0.25 to 0.5 µg/mL (≈ 0.492 to 0.984 µM). Moreover, the “Ex vivo efficacy M. avium (>90% inhibition)” value in data set [6] is more than 128 µg/mL. Also, the IC50 came to 2900 nM at TopoIV from S. aureus (setting [19]) and 200 nM on S. aureus DNA gyrase (setting [20]). In addition, the “M. tuberculosis ex vivo efficacy (% inhibition at MIC)” value in data set [7] worked out at 90%.
For the molecule `O=C(O)c1cn(C2CC2)c2cc(N3CCNCC3)c(F)cc2c1=O` [ciprofloxacin], the “MIC Streptococcus pneumoniae LSI-4246” value in data set [8] was 0.5 µg/mL (≈ 1.51 µM). In addition, the “MIC Escherichia coli ATCC 25922 (n = 2)” value in [9] was not above 0.06 µg/mL. In data set [10], the “MIC Acinetobacter baumannii LSI-2957” value was 0.25 µg/mL (≈ 0.754 µM). Further, the “MIC Enterococcus faecium DRL-4193” value in [11] is 0.25 µg/mL (≈ 0.754 µM). Further, the “MIC Streptococcus pyogenes LSI-1235” value in data set [12] was 0.25 µg/mL (≈ 0.754 µM). The “MIC Enterococcus faecalis ATCC 29212” value in data set [13] was 0.5 µg/mL (≈ 1.51 µM). In addition, the “MIC Klebsiella pneumoniae LSI-2999” value in data set [14] was 0.25 µg/mL (≈ 0.754 µM). For the same molecule, the “MIC Pseudomonas aeruginosa LSI-2946” value in [15] is 0.5 µg/mL (≈ 1.51 µM).
With `CN[C@H](CC(C)C)C(=O)N[C@H]1C(=O)N[C@@H](CC(N)=O)C(=O)N[C@H]2C(=O)N[C@H]3C(=O)N[C@H](C(=O)N[C@H](C(=O)O)c4cc(O)cc(O)c4-c4cc3ccc4O)[C@H](O)c3ccc(c(Cl)c3)Oc3cc2cc(c3O[C@@H]2O[C@H](CO)[C@@H](O)[C@H](O)[C@H]2O[C@H]2C[C@](C)(N)[C@H](O)[C@H](C)O2)Oc2ccc(cc2Cl)[C@H]1O` [vancomycin, reference compound], the MIC (in data set [1]; with USA300 isolate of MRSA) was 1 to 2 µg/mL (≈ 0.69 to 1.38 µM) throughout.
